Measured values from patent publication US20050137182A1, “Novel crystalline form of cefdinir” (priority 2003, published 2005).
Several values for one entry are separate records, joined by “and”; a condition that tells them apart may be missing. Equal entries are not always repeated. Entries after “also recorded” stand apart in the source; their conditions may differ.

Legend:
Format in all cases: physicochemical
[1] = Accelerated storage stability, 40° C. ± 2° C./75% RH ± 5% RH; details: for Assay (% w/w, by HPLC OAB), % change / Total RS (% area normalization, by HPLC) / Assay (% w/w, by HPLC OAB): accelerated 40° C. ± 2° C./75% RH ± 5% RH
[2] = Real time storage stability, 25° C. ± 2° C./60% RH ± 5% RH; details: for Assay (% w/w, by HPLC OAB), % change / Total RS (% area normalization, by HPLC) / Assay (% w/w, by HPLC OAB): real time 25° C. ± 2° C./60% RH ± 5% RH
[3] = Stress stability study, HPLC purity and assay before and after; details: 60° C.±2° C. for 15 days
Method: Stress stability studies of cefdinir crystal B were performed by keeping samples of cefdinir crystal B under the conditions of 60° C.±2° C. for 15 days, and the purity and assay of the samples were determined before and after the stress test by high performance liquid chromatography. […] Table 3 summaries the results of the stress test studies.

[4] = 1 Month, listed as Crystal B Sample 1
[5] = 2 Months, listed as Crystal B Sample 1
[6] = 2 Months, listed as Crystal B Sample 2
[7] = 3 Months, listed as Crystal B Sample 1
[8] = 3 Months, listed as Crystal B Sample 2
[9] = Initial, listed as Crystal B Sample 1
[10] = Initial, listed as Crystal B Sample 2

## C=CC1=C(C(=O)O)N2C(=O)[C@@H](NC(=O)/C(=N\O)c3csc(N)n3)[C@H]2SC1 [Cefdinir Crystal A, 7β-[(Z)-2-(2-amino-4-thiazolyl)-2-hydroxyiminoacetamido]-3-vinyl-3-cephem-4-carboxylic acid, reference compound]
[1]; 1 Month
  Assay (% w/w, by HPLC OAB), % change: −0.5%
  Total RS (% area normalization, by HPLC): 1.98 % area
[1]; 2 Months
  Assay (% w/w, by HPLC OAB), % change: −1.6%
  Total RS (% area normalization, by HPLC): 2.25 % area
[1]; 3 Months
  Assay (% w/w, by HPLC OAB), % change: −1.8%
  Total RS (% area normalization, by HPLC): 2.06 % area
[1]; Initial
  Assay (% w/w, by HPLC OAB): 96.3 % w/w
  Total RS (% area normalization, by HPLC): 0.82 % area
[1]; after 3 months under accelerated storage conditions
  Change in the assay: about 1.8%
[2]; 3 Months
  Assay (% w/w, by HPLC OAB), % change: −0.2%
  Total RS (% area normalization, by HPLC): 1.18 % area
[2]; 25° C.±2° C./60% RH±5% RH, 3 months
  Stability under normal storage conditions compared with the other crystal form (in words): as stable as crystal B
[2]; Initial
  Assay (% w/w, by HPLC OAB): 96.3 % w/w
  Total RS (% area normalization, by HPLC): 0.82 % area

## C=CC1=C(C(=O)O)N2C(=O)[C@@H](NC(=O)/C(=N\O)c3csc(N)n3)[C@H]2SC1 [Cefdinir Crystal B, 7β-[(Z)-2-(2-amino-4-thiazolyl)-2-hydroxyiminoacetamido]-3-vinyl-3-cephem-4-carboxylic acid]
[3]
  Assay (by HPLC on anhydrous basis, % change): 0%
  Degradation in stress test (in words): did not degrade
  Purity (by HPLC, % change): −0.21% and −0.33%
[1]; [4]
  Assay (% w/w, by HPLC OAB), % change: 0.0%
  Total RS (% area normalization, by HPLC): 0.72 % area
[1]; 1 Month, listed as Crystal B Sample 2
  Total RS (% area normalization, by HPLC): 0.70 % area
[1]; [5]
  Assay (% w/w, by HPLC OAB), % change: 0.0%
  Total RS (% area normalization, by HPLC): 1.10 % area
[1]; [6]
  Assay (% w/w, by HPLC OAB), % change: 0.0%
  Total RS (% area normalization, by HPLC): 0.92 % area
[1]; [7]
  Assay (% w/w, by HPLC OAB), % change: −0.1%
  Total RS (% area normalization, by HPLC): 0.90 % area
[1]; [8]
  Assay (% w/w, by HPLC OAB), % change: −0.2%
  Total RS (% area normalization, by HPLC): 1.08 % area
[1]; [9]
  Assay (% w/w, by HPLC OAB): 99.9 % w/w
  Total RS (% area normalization, by HPLC): 0.64 % area
[1]; [10]
  Assay (% w/w, by HPLC OAB): 99.4 % w/w
  Total RS (% area normalization, by HPLC): 0.59 % area
[1]; about 40° C., about 75% RH, up to 3 months
  Stability under accelerated storage conditions compared with the other crystal form (in words): increased storage stability; also recorded: superior stability
[1]; over a period of at least 3 months under accelerated storage conditions
  Amount of compound that degrades: ≤ 0.5%
[2]; [7]
  Assay (% w/w, by HPLC OAB), % change: 0.0%
  Total RS (% area normalization, by HPLC): 0.53 % area
[2]; [8]
  Assay (% w/w, by HPLC OAB), % change: 0.0%
  Total RS (% area normalization, by HPLC): 0.61 % area
[2]; [9]
  Assay (% w/w, by HPLC OAB): 99.9 % w/w
  Total RS (% area normalization, by HPLC): 0.64 % area
[2]; [10]
  Assay (% w/w, by HPLC OAB): 99.4 % w/w
  Total RS (% area normalization, by HPLC): 0.59 % area
